Source: patent publication US12486489B2, “Culture medium for testing drug resistance of H.pylori as well as preparation method and use thereof” (priority 2022, dated 2025)
Read-outs that look alike come from different tables or passages of the source.

Columns and labels:
H. pylori [1] = assay: Verification of resistance breakpoint: growth of laboratory strains on Columbia solid culture medium with added antibiotics, 72 hours; type: cell-based, Helicobacter pylori; settings: for growth of bacterial: antibiotic 0.0313 μg/mL
Procedure: The plates are cooled and inverted for approximately 10 mL/piece, marked properly for the subsequent use.
(2) Preparation of bacterial solution: H. pylori grown in logarithmic phase on a solid plate is taken to prepare a bacterial suspension by using BHI. The concentration OD600 is adjusted to 0.3 (1×10^8 CFU/mL), diluted 10 times for the subsequent use.
(3) Inoculation of bacterial solution: 10 μL of bacterial solution is taken and added to Columbia culture medium and the results are determined after cultivating for 72 hours.
(4) Result determination: the minimum drug concentration for no growth of bacteria on the plate is the minimum inhibitory concentration of the bacteria against the drug.

[2] = test system: clinical H. pylori strain; assay: MIC of clinical H. pylori strains by micro dilution method; type: cell-based; settings: Helicobacter pylori, 72 h, approximately 1.0×10^6 CFU/mL per well, 72 hours, read-out: MIC
Procedure: (§1) The characteristic culture media (A, B, C, D, E) are cultivated at a constant temperature of 37° C. for 36 hours in a three gas incubator. The characteristic culture media are removed and placed in a natural environment for 30 minutes to observe whether there are discolorations at the point of the culture medium where the specimen is dropped in. […] Another 100 μL of the specimen is taken and coated on Columbia solid culture medium and cultivated in a three gas incubator at a constant temperature of 37° C. for 3 days to 5 days. The number of colonies on the plate is counted to determine the initial inoculation amount. The micro dilution method is adopted to test the MIC of clinical specimen H. pylori, the test is meaningful only when there is no bacterial growth in the negative control well without bacteria and there is bacterial growth in the positive well with bacteria but without antibiotics.
H. pylori single colony grown on Colombian culture medium is taken (which is confirmed as H. pylori by urease, oxidase, catalase, and PCR testing of CagA gene, as illustrated in FIG. 13) and the bacteria are increased. During the preparation of MIC plates and bacterial solution, H. pylori with logarithmic growth phase is taken to prepare a bacterial suspension by using BHI. The concentration OD600 is adjusted to 0.3 (1×10^8 CFU/mL, diluted 10 times, 10 μL is taken and added to wells 1-8 (with a bacterial solution concentration of approximately 1.0×10^6 CFU/mL per well, cultivated for 72 hours to determine the results.

H. pylori [3] = assay: Drug resistance testing of laboratory strains on characteristic culture medium (discoloration after 36 hours); type: cell-based, Helicobacter pylori
Procedure: as §1, with “antibiotics. […] The results are recorded and whether the micro dilution method and characteristic culture medium are consistent with each other in evaluating the drug resistance of clinical H. pylori strains is compared. […]” for “antibiotics.”
(2) Inoculation of bacterial solution: 10 μL bacterial solution is taken and added dropwise onto a characteristic culture medium with 5 pieces (ABCDE) in total.
(3) Culture: all plates are moved to a three gas incubator and cultivated at 37° C. for 36 hours. After being taken out and placed in a natural environment for 30 minutes, whether the bacteria have resistance is determined based on the discoloration of the characteristic culture medium.

H. pylori [4] = assay: MIC of laboratory H. pylori strains by micro dilution method; type: cell-based; settings: Helicobacter pylori
Procedure: (3) Preparation of bacterial solution: H. pylori grown in logarithmic phase on a solid plate is taken, BHI culture medium is used to prepare a bacterial suspension. The concentration of the bacterial solution is adjusted to 1×10^8 CFU/mL (OD600 is 0.3), diluted 10 times, 100 times, and 1000 times to implement a final concentration of […], for the subsequent use.
(4) Inoculation of bacterial solution: 10 μL of the above bacterial solution for the subsequent use is taken and added to wells the 1-10-th and the 12-th well (bacterial working concentration is 1×10^6 CFU/mL), the 11-th well serves as a non-bacterial control and only sterile water is added. The wells are cultivated for 72 hours to determine the results.

H. pylori [5] = settings: bacterial count 1×10^6 CFU/mL; cited from earlier work

For `CC1(C)S[C@@H]2[C@H](NC(=O)[C@H](N)c3ccc(O)cc3)C(=O)N2[C@H]1C(=O)O` [Amoxicillin, amoxicillin], the “growth of sensitive strains” value (H. pylori [1]; levofloxacin 0.5, clarithromycin 0.5, metronidazole 4, amoxicillin 0.5 μg/mL) was “no sensitive strain grows”, the growth of bacterial (H. pylori [1]; strain 159) was “+” and the growth of bacterial (H. pylori [1]; strain 161) was “+”. The growth of bacterial (H. pylori [1]; strain 162) was “+”, the growth of bacterial (H. pylori [1]; strain 163) was “+” and the growth of bacterial (H. pylori [1]; strain 286) was “−”. For the same compound, the growth of bacterial (H. pylori [1]; strain 287) was “+”, the growth of bacterial (H. pylori [1]; strain 289) was “+” and the growth of bacterial (H. pylori [1]; strain 290) was “+”. The growth of bacterial (H. pylori [1]; strain 26695) was “+”, the growth of bacterial (H. pylori [1]; strain G27) was “+” and the MIC ([2]; clinical strain FY-31) was 0.0312 µg/mL. For the same compound, the MIC ([2]; clinical strain FY-43) was 0.0312 µg/mL, the MIC ([2]; clinical strain FY-47) was 0.0312 µg/mL and the MIC ([2]; clinical strain FY-52) was under 0.0312 µg/mL. For the same compound, the “drug resistance determined by discoloration of characteristic culture medium” value (“drug resistance determined” below) (H. pylori [3]; strain 159, 1×10^6 CFU/mL) was “sensitive”, the “drug resistance determined” value (H. pylori [3]; strain 286, 1×10^6 CFU/mL) was “have developed resistance” and the “drug resistance determined” value (H. pylori [3]; strain 287, 1×10^6 CFU/mL) was “have developed resistance”. The “drug resistance determined” value (H. pylori [3]; strain 289, 1×10^6 CFU/mL) was “have developed resistance”, the “drug resistance determined” value (H. pylori [3]; strain G27, 1×10^6 CFU/mL) was “does not develop resistance” and the MIC (H. pylori [4]; read-out: MICs, standard sensitive strains G27 and 26695, bacterial count 1×10^6 CFU/mL) was 0.0156 to 0.0325 µg/mL. The MIC (H. pylori [4]; read-out: minimum inhibitory concentration (MIC), strain 159, bacterial count 10^6 CFU/mL (first line of the strain)) was 0.125 µg/mL, the MIC (H. pylori [4]; read-out: minimum inhibitory concentration (MIC), strain 161, bacterial count 10^6 CFU/mL (first line of the strain)) was 0.125 µg/mL and the MIC (H. pylori [4]; read-out: minimum inhibitory concentration (MIC), strain 162, bacterial count 10^6 CFU/mL (first line of the strain)) was 0.125 µg/mL. For the same compound, the MIC (H. pylori [4]; read-out: minimum inhibitory concentration (MIC), strain 163, bacterial count 10^4 CFU/mL) was 0.25 µg/mL, the MIC (H. pylori [4]; read-out: minimum inhibitory concentration (MIC), strain 163, bacterial count 10^6 CFU/mL (first line of the strain)) was 1 µg/mL and the MIC (H. pylori [4]; read-out: minimum inhibitory concentration (MIC), strain 163, bacterial count 10^6 CFU/mL (second line of the strain)) was 0.5 µg/mL. It also gave an MIC (H. pylori [4]; read-out: minimum inhibitory concentration (MIC), strain 286, bacterial count 10^4 CFU/mL) of 0.5 µg/mL, an MIC (H. pylori [4]; read-out: minimum inhibitory concentration (MIC), strain 286, bacterial count 10^6 CFU/mL (first line of the strain)) of 1 µg/mL and an MIC (H. pylori [4]; read-out: minimum inhibitory concentration (MIC), strain 286, bacterial count 10^6 CFU/mL (second line of the strain)) of 0.5 µg/mL. For the same compound, the MIC (H. pylori [4]; read-out: minimum inhibitory concentration (MIC), strain 287, bacterial count 10^6 CFU/mL (first line of the strain)) was 0.25 µg/mL, the MIC (H. pylori [4]; read-out: minimum inhibitory concentration (MIC), strain 287, bacterial count 10^6 CFU/mL (second line of the strain)) was 0.125 µg/mL and the MIC (H. pylori [4]; read-out: minimum inhibitory concentration (MIC), strain 289, bacterial count 10^4 CFU/mL) was 0.125 µg/mL. It also gave an MIC (H. pylori [4]; read-out: minimum inhibitory concentration (MIC), strain 289, bacterial count 10^6 CFU/mL (first line of the strain)) of 1 µg/mL, an MIC (H. pylori [4]; read-out: minimum inhibitory concentration (MIC), strain 289, bacterial count 10^6 CFU/mL (second line of the strain)) of 0.5 µg/mL and an MIC (H. pylori [4]; read-out: minimum inhibitory concentration (MIC), strain 290, bacterial count 10^4 CFU/mL) of 1 µg/mL. It also gave an MIC (H. pylori [4]; read-out: minimum inhibitory concentration (MIC), strain 290, bacterial count 10^6 CFU/mL (first line of the strain)) of 4 µg/mL, an MIC (H. pylori [4]; read-out: minimum inhibitory concentration (MIC), strain 290, bacterial count 10^6 CFU/mL (second line of the strain)) of 2 µg/mL and an MIC (H. pylori [4]; read-out: minimum inhibitory concentration (MIC), strain 26695, bacterial count 10^4 CFU/mL) of 0.0325 µg/mL. It also gave an MIC (H. pylori [4]; read-out: minimum inhibitory concentration (MIC), strain 26695, bacterial count 10^6 CFU/mL (second line of the strain)) of 0.0325 µg/mL, an MIC (H. pylori [4]; strain G27, bacterial count 10^4 CFU/mL, read-out: minimum inhibitory concentration (MIC)) of 0.00781 µg/mL and an MIC (H. pylori [4]; strain G27, bacterial count 10^6 CFU/mL (first line of the strain), read-out: minimum inhibitory concentration (MIC)) of 0.0312 µg/mL. For the same compound, the MIC (H. pylori [4]; strain G27, bacterial count 10^6 CFU/mL (second line of the strain), read-out: minimum inhibitory concentration (MIC)) was 0.0156 µg/mL and the “resistance breakpoints of H. pylori according to CLSI guidelines” value (H. pylori [5]) was 0.5 µg/mL.
